{
  "source": "ChEMBL document CHEMBL1201862",
  "about": "“PubChem BioAssay data set” (2004)",
  "key": {"[1]": {"molecular_target": "Phosphoethanolamine/phosphocholine phosphatase (Homo sapiens, UniProt Q8TCT1)", "sequence (Q8TCT1 whole entry)": "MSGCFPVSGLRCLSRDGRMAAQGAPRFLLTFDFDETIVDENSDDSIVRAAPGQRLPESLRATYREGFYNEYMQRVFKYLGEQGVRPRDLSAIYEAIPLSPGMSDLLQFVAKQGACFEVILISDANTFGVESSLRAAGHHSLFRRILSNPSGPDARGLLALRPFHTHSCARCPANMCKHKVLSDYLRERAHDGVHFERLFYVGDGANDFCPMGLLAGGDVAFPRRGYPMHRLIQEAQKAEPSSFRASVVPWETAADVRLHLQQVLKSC", "assay": "SAR assay for compounds that inhibit PHOSPHO1. [Related pubchem assays (depositor defined):AID1545, AID1565, AID1574]"}, "[2]": {"molecular_target": "DNA dC->dU-editing enzyme APOBEC-3G (Homo sapiens, UniProt Q9HC16)", "sequence (Q9HC16 whole entry)": "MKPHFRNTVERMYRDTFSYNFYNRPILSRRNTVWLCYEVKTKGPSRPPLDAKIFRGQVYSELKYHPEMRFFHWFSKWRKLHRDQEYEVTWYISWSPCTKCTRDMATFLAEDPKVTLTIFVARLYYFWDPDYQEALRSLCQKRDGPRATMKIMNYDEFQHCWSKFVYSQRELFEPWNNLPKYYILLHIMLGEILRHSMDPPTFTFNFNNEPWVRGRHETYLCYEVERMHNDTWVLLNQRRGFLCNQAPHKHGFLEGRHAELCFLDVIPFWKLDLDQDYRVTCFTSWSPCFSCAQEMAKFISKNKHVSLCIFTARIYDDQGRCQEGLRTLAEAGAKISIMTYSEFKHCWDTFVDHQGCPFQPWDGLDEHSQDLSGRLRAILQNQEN", "assay": "Dose Response confirmation of small molecule APOBEC3G DNA Deaminase Inhibitors via a fluorescence-based single-stranded DNA deaminase assay. [Related pubchem assays (depositor defined):AID493012, AID493028]", "format": "functional"}, "[3]": {"molecular_target": "T1, Alkaline phosphatase, tissue-nonspecific isozyme (Homo sapiens, UniProt P05186)", "T1 sequence (P05186 whole entry)": "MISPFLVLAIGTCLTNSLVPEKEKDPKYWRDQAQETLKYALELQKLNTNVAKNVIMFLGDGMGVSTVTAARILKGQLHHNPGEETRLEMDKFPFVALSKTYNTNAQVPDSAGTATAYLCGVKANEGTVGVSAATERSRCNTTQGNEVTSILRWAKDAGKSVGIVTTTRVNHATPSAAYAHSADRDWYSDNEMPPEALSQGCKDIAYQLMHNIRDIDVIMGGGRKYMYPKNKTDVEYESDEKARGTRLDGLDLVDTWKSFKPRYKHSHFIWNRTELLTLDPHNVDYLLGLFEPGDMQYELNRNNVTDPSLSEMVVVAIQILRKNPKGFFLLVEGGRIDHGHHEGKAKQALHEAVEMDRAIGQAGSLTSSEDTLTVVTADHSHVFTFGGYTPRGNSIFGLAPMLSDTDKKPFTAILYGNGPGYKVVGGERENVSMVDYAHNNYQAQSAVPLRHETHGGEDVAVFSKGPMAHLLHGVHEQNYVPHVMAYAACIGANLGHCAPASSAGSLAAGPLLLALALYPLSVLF", "assay": "human TNAP enzyme inhibitors, SAR follow-up, biochemical, luminescent, dose response (AID 1056)"}, "[4]": {"assay": "Fluorescence-based cell-based high throughput dose response assay for inhibitors of the interaction of nucleotide-binding oligomerization domain containing 2 (NOD2) and the receptor-interacting serine-threonine kinase 2 (RIPK2).", "format": "functional", "conditions": "Homo sapiens"}, "Beta Lactamase": {"molecular_target": "Beta Lactamase (Pseudomonas aeruginosa, UniProt Q932Y6)", "sequence (Q932Y6 whole entry)": "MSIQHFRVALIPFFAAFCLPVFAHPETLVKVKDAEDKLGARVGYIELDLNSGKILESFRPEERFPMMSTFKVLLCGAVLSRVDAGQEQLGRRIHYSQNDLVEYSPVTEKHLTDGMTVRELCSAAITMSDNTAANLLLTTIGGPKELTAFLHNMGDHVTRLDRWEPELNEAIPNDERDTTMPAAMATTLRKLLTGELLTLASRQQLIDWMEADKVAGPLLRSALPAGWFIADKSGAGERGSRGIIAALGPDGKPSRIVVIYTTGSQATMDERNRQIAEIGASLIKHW", "assay": "beta-lactamase reporter inhibitor potency, dose response, artefact control for NOD2-RIPK2 interaction inhibitor project, BLA reporter cells, FRET fluorescence (AID 651552)", "format": "functional, cell-based"}, "[5]": {"assay": "HeLa cell cytotoxicity, dose response, cytotoxicity control for MgcRacGAP inhibitor project (AID 624300)", "format": "functional"}, "[6]": {"molecular_target": "T2, Rac GTPase-activating protein 1 (Homo sapiens, UniProt Q9H0H5)", "T2 sequence (Q9H0H5 whole entry)": "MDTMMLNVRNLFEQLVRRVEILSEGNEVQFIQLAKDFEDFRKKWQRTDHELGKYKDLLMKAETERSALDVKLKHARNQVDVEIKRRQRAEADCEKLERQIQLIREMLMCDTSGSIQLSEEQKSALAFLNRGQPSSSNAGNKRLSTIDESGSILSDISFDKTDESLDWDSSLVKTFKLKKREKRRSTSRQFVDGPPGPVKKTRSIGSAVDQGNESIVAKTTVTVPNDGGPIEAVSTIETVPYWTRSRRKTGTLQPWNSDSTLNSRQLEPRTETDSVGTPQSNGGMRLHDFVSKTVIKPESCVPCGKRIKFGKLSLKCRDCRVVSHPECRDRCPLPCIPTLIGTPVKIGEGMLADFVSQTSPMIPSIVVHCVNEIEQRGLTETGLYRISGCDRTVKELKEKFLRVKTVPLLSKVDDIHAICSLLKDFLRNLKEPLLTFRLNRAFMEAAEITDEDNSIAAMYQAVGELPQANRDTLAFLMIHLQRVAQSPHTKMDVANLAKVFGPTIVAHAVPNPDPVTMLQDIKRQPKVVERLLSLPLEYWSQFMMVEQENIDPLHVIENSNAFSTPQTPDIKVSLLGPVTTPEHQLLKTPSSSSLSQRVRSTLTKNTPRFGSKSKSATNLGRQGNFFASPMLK", "assay": "MgcRacGAP GTPase-activating activity inhibitors, confirmation, biochemical, ADP Hunter fluorescence, primary and confirmatory (AID 624330)", "format": "functional"}, "[7]": {"assay": "LGR2 antagonists, dose response, cell-based, HEK293, CRE-luciferase reporter, cherry pick, set 2 (AID 743343);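 note: transfected cells were stimulated with diluted bursicon conditioned medium after compound addition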", "format": "functional"}, "[8]": {"assay": "MC4R antagonists, dose response, counter-screen for LGR2 antagonist project, cell-based, plate reader, cherry pick (AID 743444);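 note: transfected HEK 293 cells stimulated with alpha-MSH peptide; potency of inhibitors of the alpha-MSH evoked signal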", "format": "functional"}, "[9]": {"assay": "Luminescence Cell-Based Dose Response HTS to Identify Activators of Luciferase Translation or Activity in H4 […] Cells. [Related pubchem assays: 1829 (Project Summary), 1814 (Primary HTS)]", "format": "functional"}, "[10]": {"molecular_target": "Alkaline phosphatase, placental type (Homo sapiens, UniProt P05187)", "sequence (P05187 whole entry)": "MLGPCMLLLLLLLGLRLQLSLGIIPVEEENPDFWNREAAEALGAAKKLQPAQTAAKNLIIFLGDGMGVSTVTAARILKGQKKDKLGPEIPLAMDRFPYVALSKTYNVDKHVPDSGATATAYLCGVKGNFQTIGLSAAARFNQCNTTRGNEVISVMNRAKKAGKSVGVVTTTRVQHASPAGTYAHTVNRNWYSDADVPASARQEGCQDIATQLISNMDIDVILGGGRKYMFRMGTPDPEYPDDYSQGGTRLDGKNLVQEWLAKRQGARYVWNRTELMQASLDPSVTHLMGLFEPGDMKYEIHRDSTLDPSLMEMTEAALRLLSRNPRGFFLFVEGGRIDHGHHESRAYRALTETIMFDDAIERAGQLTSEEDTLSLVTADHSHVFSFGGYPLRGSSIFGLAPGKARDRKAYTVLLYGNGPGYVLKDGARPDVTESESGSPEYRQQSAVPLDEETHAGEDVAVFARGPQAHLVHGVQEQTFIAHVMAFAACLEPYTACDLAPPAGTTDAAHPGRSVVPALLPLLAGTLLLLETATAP", "assay": "PLAP enzyme inhibitors, confirmation, biochemical, luminescence (AID 1512)", "format": "functional"}, "[11]": {"molecular_target": "G-protein coupled receptor 55 (Homo sapiens, UniProt Q9Y2T6)", "sequence (Q9Y2T6 whole entry)": "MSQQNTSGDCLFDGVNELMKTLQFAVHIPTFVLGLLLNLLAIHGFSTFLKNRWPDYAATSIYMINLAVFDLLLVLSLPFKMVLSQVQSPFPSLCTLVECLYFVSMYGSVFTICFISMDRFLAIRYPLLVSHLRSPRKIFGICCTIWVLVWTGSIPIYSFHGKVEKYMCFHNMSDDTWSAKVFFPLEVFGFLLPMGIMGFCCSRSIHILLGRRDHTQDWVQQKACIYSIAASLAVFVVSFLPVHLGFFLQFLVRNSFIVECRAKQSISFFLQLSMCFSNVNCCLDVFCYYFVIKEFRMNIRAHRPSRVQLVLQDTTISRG", "assay": "GPR55 agonists via beta-arrestin recruitment, primary screen, imaging, U2OS cells, beta-arrestin-GFP redistribution (AID 1961)", "format": "functional"}, "[12]": {"test_system": "Streptococcus sp. 'group A'", "assay": "growth inhibition of control SK(-) GAS strain, dose response, counter-screen for streptokinase expression inhibitor project, luminescence, kanamycin, BacTiterGlo, confirmation (AID 1900)", "format": "functional, organism-based"}, "Streptokinase A": {"molecular_target": "T3, Streptokinase A (Streptococcus pyogenes serotype M1, UniProt P10520)", "T3 sequence (P10520 whole entry)": "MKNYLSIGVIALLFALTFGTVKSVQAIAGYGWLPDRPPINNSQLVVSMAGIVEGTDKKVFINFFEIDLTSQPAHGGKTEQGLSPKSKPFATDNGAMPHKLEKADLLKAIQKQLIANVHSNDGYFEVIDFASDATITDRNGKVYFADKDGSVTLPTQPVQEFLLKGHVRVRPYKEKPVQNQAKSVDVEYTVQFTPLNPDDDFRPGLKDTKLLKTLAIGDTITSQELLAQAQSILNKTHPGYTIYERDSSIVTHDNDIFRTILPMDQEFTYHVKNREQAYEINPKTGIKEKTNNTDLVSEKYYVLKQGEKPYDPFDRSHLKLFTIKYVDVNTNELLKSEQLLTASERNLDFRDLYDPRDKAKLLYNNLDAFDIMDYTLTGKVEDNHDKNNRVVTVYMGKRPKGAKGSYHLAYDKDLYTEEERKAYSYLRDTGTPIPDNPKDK", "assay": "S. pyogenes streptokinase expression inhibitors, potency, dose response, plasminogen activation absorbance, OD405 (AID 1914);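 note: secreted streptokinase activity via plasminogen activation per viability signal from cell pellet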", "format": "functional, Streptococcus pyogenes M1 GAS"}, "Streptococcus": {"test_system": "Streptococcus", "assay": "Group A Streptococcus viability loss, dose response, counter-screen for streptokinase expression inhibitor project, luminescence, BacTiterGlo (AID 1915);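 note: potency for reduction of bacterial viability or growth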", "format": "functional, organism-based"}, "[13]": {"assay": "THP-1 cell cytotoxicity, dose response, cytotoxicity control for non-replicating M. tuberculosis project (AID 489025)", "format": "functional"}, "[14]": {"assay": "Vero E6 cell cytotoxicity, dose response, cytotoxicity control for non-replicating M. tuberculosis project, secondary assay (AID 492998)", "format": "functional, VeroE6", "conditions": "Vero C1008"}, "cells": {"assay": "cells", "format": "functional"}},
  "note": "Calls of active or inactive are those of the source.",
  "data": [
    {"smiles": "COc1ccc(-n2sc3ccc(F)cc3c2=O)cc1", "values": [
      {"measurement": "IC50", "setting": "[1]", "value": "6.67 µM (inactive)"},
      {"measurement": "IC50", "setting": "[2]", "value": "10.8 µM (active)"},
      {"measurement": "IC50", "setting": "[3]", "value": "> 100 µM (inactive)"},
      {"measurement": "IC50", "setting": "[4]", "value": "5.42 µM (active)"},
      {"measurement": "IC50", "setting": "Beta Lactamase", "value": "19.9 µM (inactive)"},
      {"measurement": "CC50", "setting": "[5]", "value": "100 µM (active)"},
      {"measurement": "IC50", "setting": "[6]", "value": "45.2 µM (active)"},
      {"measurement": "AC50", "setting": "[7]", "value": "6.6 µM (active)"},
      {"measurement": "AC50", "setting": "[8]", "value": "5.92 µM (active)"}
    ]},
    {"smiles": "Clc1ccccc1-c1n[nH]c(-c2ccccc2)n1", "values": [
      {"measurement": "EC50", "setting": "[9]", "value": "0.348 µM (active)"},
      {"measurement": "IC50", "setting": "[10]", "value": "> 100 µM (inactive)"},
      {"measurement": "IC50", "setting": "[3]", "value": "0.641 µM (active)"}
    ]},
    {"smiles": "CC(C)(C)OC(=O)CN1C(=O)S/C(=C\\c2ccc(-c3cccc(C(=O)O)c3)o2)C1=O", "values": [
      {"measurement": "EC50", "setting": "[11]", "value": "4.23 µM (active)"}
    ]},
    {"smiles": "COc1ccc(C(=O)Nc2nnc(-c3ccccc3)o2)cc1OC", "values": [
      {"measurement": "EC50", "setting": "[12]", "value": "6.46 µM (active)"},
      {"measurement": "EC50", "setting": "Streptokinase A", "value": "> 150 µM (not active)"},
      {"measurement": "EC50", "setting": "Streptococcus", "value": "> 150 µM (not active)"},
      {"measurement": "CC50", "setting": "[13]", "value": "> 40 µM (active)"},
      {"measurement": "CC50", "setting": "[14]", "value": "> 20 µM (active)"},
      {"measurement": "IC50", "setting": "cells", "value": "17.2 µM (active)"}
    ]}
  ]
}
